Assay results as given in PubChem BioAssay (NCI).
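Assay format: 96-well plates, 48-hour exposure. TGI marks complete inhibition of growth.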

Columns and labels:
Test in all cases: inhibition of tumour cell growth, NCI panel, 48 h
OVCAR-3 ovarian = system: OVCAR-3 ovarian
LOX IMVI melanoma = system: LOX IMVI melanoma
CCRF-CEM leukemia = system: CCRF-CEM leukemia
RPMI-8226 leukemia = system: RPMI-8226 leukemia
SNB-19 CNS = system: SNB-19 CNS
OVCAR-4 ovarian = system: OVCAR-4 ovarian
HOP-62 NSCLC = system: HOP-62 NSCLC
HCT-116 colon = system: HCT-116 colon
KM12 colon = system: KM12 colon
OVCAR-5 ovarian = system: OVCAR-5 ovarian
SK-MEL-5 melanoma = system: SK-MEL-5 melanoma
IGROV1 ovarian = system: IGROV1 ovarian
NCI-H522 lung = system: NCI-H522 lung
HCT-15 colon = system: HCT-15 colon
MDA-N = system: MDA-N
MOLT-4 leukemia = system: MOLT-4 leukemia
U251 CNS = system: U251 CNS
M14 melanoma = system: M14 melanoma
DU-145 prostate = system: DU-145 prostate
ACHN renal = system: ACHN renal
RXF 393 renal = system: RXF 393 renal
MDA-MB-435 = system: MDA-MB-435
A498 renal = system: A498 renal
HCC-2998 colon = system: HCC-2998 colon
BT-549 breast = system: BT-549 breast
NCI-H460 lung = system: NCI-H460 lung
HT29 colon = system: HT29 colon
NCI-H23 lung = system: NCI-H23 lung
TK-10 renal = system: TK-10 renal
UACC-62 melanoma = system: UACC-62 melanoma
UACC-257 melanoma = system: UACC-257 melanoma
HS 578T breast = system: HS 578T breast
UO-31 renal = system: UO-31 renal
SF-268 CNS = system: SF-268 CNS
A549 NSCLC = system: A549 NSCLC
SN12C renal = system: SN12C renal
CAKI-1 renal = system: CAKI-1 renal
OVCAR-8 ovarian = system: OVCAR-8 ovarian
SF-539 CNS = system: SF-539 CNS
K-562 leukemia = system: K-562 leukemia
COLO 205 colon = system: COLO 205 colon
SR leukemia = system: SR leukemia
PC-3 prostate = system: PC-3 prostate
786-0 renal = system: 786-0 renal
HOP-92 NSCLC = system: HOP-92 NSCLC
SK-MEL-2 melanoma = system: SK-MEL-2 melanoma
SK-MEL-28 melanoma = system: SK-MEL-28 melanoma
MCF7 breast = system: MCF7 breast
MDA-MB-231 breast = system: MDA-MB-231 breast
NCI-H226 lung = system: NCI-H226 lung
SNB-75 CNS = system: SNB-75 CNS
NCI/ADR-RES ovarian = system: NCI/ADR-RES ovarian
SF-295 CNS = system: SF-295 CNS
MALME-3M melanoma = system: MALME-3M melanoma

Measured: TGI

CC(=O)OC1C[C@@H](C)C2(C[C@H](O)c3ccoc3)C(=O)OC[C@]13C2CCC(O)C31CO1 (some centres undefined)
> 100 µM: OVCAR-3 ovarian | LOX IMVI melanoma | CCRF-CEM leukemia | RPMI-8226 leukemia | SNB-19 CNS | OVCAR-4 ovarian | HOP-62 NSCLC | HCT-116 colon | KM12 colon | OVCAR-5 ovarian | SK-MEL-5 melanoma | IGROV1 ovarian | NCI-H522 lung | HCT-15 colon | MDA-N | MOLT-4 leukemia | U251 CNS | M14 melanoma | DU-145 prostate | ACHN renal | RXF 393 renal | MDA-MB-435 | A498 renal | HCC-2998 colon | BT-549 breast | NCI-H460 lung | HT29 colon | NCI-H23 lung | TK-10 renal | UACC-62 melanoma | UACC-257 melanoma | HS 578T breast | UO-31 renal | SF-268 CNS | A549 NSCLC | SN12C renal | CAKI-1 renal | OVCAR-8 ovarian | SF-539 CNS | K-562 leukemia | COLO 205 colon | SR leukemia | PC-3 prostate | 786-0 renal | HOP-92 NSCLC | SK-MEL-2 melanoma | SK-MEL-28 melanoma | MCF7 breast | MDA-MB-231 breast | NCI-H226 lung | SNB-75 CNS | NCI/ADR-RES ovarian | SF-295 CNS | MALME-3M melanoma
